Consider 2 molecules from patent US20150278436A1, “Methods For Evaluating Effects Of A Treatment On Biological Processes And Pathways” (The Procter & Gamble Company, priority 2014, published 2015).

Some results are limits rather than exact numbers.

Common to all, as to format: cell-based
The subject of assay [1] is cholesterol metabolism processes/pathways. The experiment in a line: Percentile of treatment anti-aging effect on Gene Ontology processes/pathways (FIG. 6). The note with it: for effect on the cholesterol metabolism processes/pathways: processes/pathways 100a-h, associated with fibroblasts. From the text:
(§1) In general, the method computes a distance between two vectors (i.e., a vector distance), and determines the statistical significance of the vector distance to assess the effect of a treatment on a particular biological pathway. The first of the two vectors is a set of expression changes representing the treatment effect of an ingredient on genes in the biological pathway, and includes one value for each of the genes in the biological pathway. The second of the vectors is a set of expression changes representing the effect of the condition on the genes of the biological pathway. By comparing the vector distance between the two vectors against an empirical distribution of vector distances, the significance of the effect of the treatment on the biological pathway can be determined. The genes corresponding to each biological pathway/process and represented in each of the vectors are specified by Gene Ontology, KEGG pathway, WikiPathway, and/or any other known source.
Specific methods and calculations will now be described using the examples above in which the target treatment is Pal-KTTKS (and others) and the target condition is aging of skin cells. Throughout, UV-mediated aging may also be referred to as “photo-aging,” and cells subject to photo-aging may be referred to as “UV-exposed skin cells” or “skin cells exposed to UV radiation.” Similarly, non-UV-mediated aging may also be referred to as “intrinsic aging,” and cells subject to intrinsic aging may be referred to as “non-UV-exposed skin cells.” The treatment effect—in this case the anti-aging effect—of a specified ingredient (e.g., Pal-KTTKS) is measured by the vector distance (e.g., cosine distance) between two vectors of expression changes (e.g., log 2 fold expression changes) of genes in a target biological process. […]
(§2) While the vector distance for a treatment and a target biological pathway is indicative of the effect of the treatment on the target biological pathway, the vector distance by itself is not indicative of the significance of the effect relative to other effects on other biological pathways. The statistical significance of a particular vector distance may be extrapolated from an empirical distribution of vector distances calculated using reference genomics data such as connectivity map (CMap) genomics data. […]
Using the distributions, a percentile may be calculated for the vector distance between the clinical and treatment vectors. Specifically, the percentile among the extreme region of the distribution for the i-th target biological process is calculated according to […]

For assay [2], the system named is ATPase regulation processes/pathways. Put plainly: Percentile of treatment anti-aging effect on Gene Ontology processes/pathways (FIG. 7).
Text: as §1, with “The genes corresponding to each biological pathway/process and represented in each of the vectors are specified by Gene Ontology, KEGG pathway, WikiPathway, and/or any other known source.” left out
as §2

In assay [3] the test system is innate and adaptive immunity processes/pathways. The experiment in a line: Percentile of treatment anti-aging effect on Gene Ontology processes/pathways (FIG. 8).
Text: as §1, with “The genes corresponding to each biological pathway/process and represented in each of the vectors are specified by Gene Ontology, KEGG pathway, WikiPathway, and/or any other known source.” left out
as §2

For assay [4], the system named is cholesterol biosynthesis pathway. The experiment in a line: Vector (cosine) distance between treatment and clinical aging gene expression vectors, with percentile in the reference genomics distribution (FIG. 4).
Text: as §1
In the case of a study of the effects of a particular agent, Pal-KTTKS (e.g., at 3 ppm concentrations), on aging of skin cells, for example, a particular biological process may be targeted. For each of the genes in the target biological process, the expression changes (e.g., log 2 fold changes) between old and young cells may be calculated for cells exposed to ultraviolet (UV) radiation (e.g., cells taken from the arms), for cells not exposed to UV radiation (e.g., cells taken from the buttocks), or for both. That is, the condition genomics data 34 may be compared to the control genomics data 33 to determine the expression change for each of the genes in the target biological process. The expression changes between treated and untreated cells may also be calculated for each of the genes in the target biological process, which in some implementations may include comparing the control genomics data 33 to the treatment genomics data 32. Each set of expression changes (where each set comprises an expression change for each of the genes in the target biological process) forms a corresponding vector, and the vector for the treatment effect (also referred to hereafter as the “treatment vector”) is compared to the vector for the reference effect (e.g., the vector for old/young cells), which is also referred to herein as a “clinical vector,” by taking the distance (e.g., cosine distance) between the vectors.
Specific methods and calculations will now be described using the examples above in which the target treatment is Pal-KTTKS (and others) and the target condition is aging of skin cells. Throughout, UV-mediated aging may also be referred to as “photo-aging,” and cells subject to photo-aging may be referred to as “UV-exposed skin cells” or “skin cells exposed to UV radiation.” Similarly, non-UV-mediated aging may also be referred to as “intrinsic aging,” and cells subject to intrinsic aging may be referred to as “non-UV-exposed skin cells.” The treatment effect—in this case the anti-aging effect—of a specified ingredient (e.g., Pal-KTTKS) is measured by the vector distance (e.g., cosine distance) between two vectors of expression changes (e.g., log 2 fold expression changes) of genes in a target biological process. One of the vectors compares treatment genomics data for the genes with control genomics data for the genes to represent the treatment effects on the genes (i.e., a “treatment effect vector” or “treatment vector” of the ingredient). […]

As for `NC(=O)c1cccnc1` [Niacinamide], the “percentile for steroid metabolic process (100b)” value in assay [1] (columns D and E, only single process below exemplary threshold) is reported as below 5%. In assay [1] (FIG. 6), the “effect on the cholesterol metabolism processes/pathways” value is “likely does not strongly affect”. Further, the “effect on the ATPase regulation processes/pathways overall” value in assay [2] was “almost no effect”. The “effect on the set 140 of innate and adaptive immunity pathways” value in assay [3] is “strong effect”. Further, in assay [3] (many of the percentile values, example threshold), the “percentile values for innate and adaptive immunity processes/pathways” value is reported as below 5%.

With Pal-KTTKS, the “calculated percentile of vector distance in distribution from fibroblast reference genomics data, UV-mediated aging” value in assay [4] (3 ppm on fibroblast cells, UV-exposed cells) is recorded as 0.36. Also, the “cosine distance with the photo aging vector” value in assay [4] (3 ppm on fibroblast cells, UV-exposed cells clinical vector, cholesterol biosynthesis pathway) was −0.640. Moreover, the “calculated percentile of vector distance in distribution from fibroblast reference genomics data, intrinsic aging” value in assay [4] (3 ppm on fibroblast cells, non-UV-exposed cells) is 0.22. Also, in assay [4] (3 ppm on fibroblast cells, non-UV-exposed cells clinical vector, cholesterol biosynthesis pathway), the “cosine distance with the intrinsic aging vector” value is listed as −0.720. For the same molecule, the “anti-aging benefit on the cholesterol synthesis pathway” value in assay [4] (both intrinsic and UV-mediated aging) is “strong anti-aging benefit”. For the same molecule, in assay [1] (cholesterol metabolism set, FIG. 6), the “percentile values for each of the biological processes/pathways 100a-h” value was “very low percentile values”. For the same molecule, the “effect on the cholesterol metabolism processes/pathways” value in assay [1] (FIG. 6) is given as “very strong effect”. Besides, the “effect on the ATPase regulation processes/pathways overall” value in assay [2] is given as “almost no effect”.
